Laboratory results reported in ChEMBL document CHEMBL2150981, “Discovery and optimization of benzotriazine di-N-oxides targeting replicating and nonreplicating Mycobacterium tuberculosis” (J Med Chem, 2012).
In brackets after ≈: the same amount, converted by molar mass.

Columns and labels:
[1] = Selectivity index, ratio of CC50 for Vero cells to MIC90 for Mycobacterium tuberculosis H37Rv isolate SRI; type: functional
[2] = test system: Mycobacterium tuberculosis; experiment: Antitubercular activity against Mycobacterium tuberculosis H37Rv isolate SRI after 5 days by resazurin-based microplate assay; type: functional; details: 120 h
Vero = experiment: Cytotoxicity against african green monkey Vero cells after 72 hrs by CellTiterGlo assay; details: chlorocebus sabaeus, vero, 72 h
[3] = test system: Mycobacterium tuberculosis; experiment: Antitubercular activity against Mycobacterium tuberculosis H37Rv incubated for 10 days in anaerobic condition followed by 48 hrs incubation in aerobic condition by LORA assay; type: functional
[4] = test system: Mycobacterium tuberculosis; experiment: Antitubercular activity against Mycobacterium tuberculosis H37Rv isolate ITR after 7 days by luminescence spectrometry; type: functional; details: 168 h

SMILES | Selectivity Index [1] | MIC90 [2] | CC50 (Vero) | MIC90 [3] | MIC90 [4]
CCNc1n[n+]([O-])c2cc(Cl)ccc2[n+]1[O-] | 2.1 | 1.2 mg/L (≈ 4.99 µM) | 2.6 mg/L (≈ 10.8 µM) | 0.41 mg/L (≈ 1.7 µM) | < 0.12 mg/L
NNC(=O)c1ccncc1 [ISONIAZID] | >830 | 0.06 mg/L (≈ 0.438 µM) | > 50 mg/L | > 20 mg/L | 0.091 mg/L (≈ 0.664 µM)
[H][C@]12C[C@]3([H])C[C@]([H])(C1)[C@H](Nc1n[n+]([O-])c4ccccc4[n+]1[O-])[C@]([H])(C2)C3 | 2.9 | 2.5 mg/L (≈ 8 µM) | 7.3 mg/L (≈ 23.4 µM) | 2.3 mg/L (≈ 7.36 µM) | 1.9 mg/L (≈ 6.08 µM)
[O-][n+]1nc(NC2CCCCC2)[n+]([O-])c2ccc(Cl)cc21 | 4.2 | 0.62 mg/L (≈ 2.1 µM) | 2.6 mg/L (≈ 8.82 µM) | 0.63 mg/L (≈ 2.14 µM) | 0.94 mg/L (≈ 3.19 µM)
CCCC(C)Nc1n[n+]([O-])c2ccccc2[n+]1[O-] (stereo unspecified) | 5.3 | 5 mg/L (≈ 20.1 µM) | 26 mg/L (≈ 105 µM) | 0.99 mg/L (≈ 3.99 µM) | 1.9 mg/L (≈ 7.65 µM)
COc1ccc2c(c1)[n+]([O-])nc(N[C@@H]1C[C@H]3CC[C@@H]1C3)[n+]2[O-] | >80 | 0.62 mg/L (≈ 2.05 µM) | > 50 mg/L | 1.6 mg/L (≈ 5.29 µM) | 0.97 mg/L (≈ 3.21 µM)
[O-][n+]1nc(NC2CCC2)[n+]([O-])c2ccccc21 | 7.1 | 1.2 mg/L (≈ 5.17 µM) | 8.9 mg/L (≈ 38.3 µM) | 0.84 mg/L (≈ 3.62 µM) | 0.94 mg/L (≈ 4.05 µM)
[O-][n+]1nc(NC2CCC2)[n+]([O-])c2ccc(Cl)cc21 | 10 | 0.15 mg/L (≈ 0.562 µM) | 1.6 mg/L (≈ 6 µM) | < 0.12 mg/L | 
COc1cc2c(cc1C)[n+]([O-])nc(N[C@@H]1C[C@H]3CC[C@@H]1C3)[n+]2[O-] | >10 | 5 mg/L (≈ 15.8 µM) | > 50 mg/L | 3.5 mg/L (≈ 11.1 µM) | 5.6 mg/L (≈ 17.7 µM)
[O-][n+]1nc(NC2CCCC2)[n+]([O-])c2ccc(Br)cc21 | 110 | 0.15 mg/L (≈ 0.461 µM) | 18 mg/L (≈ 55.4 µM) | 0.46 mg/L (≈ 1.41 µM) | 0.35 mg/L (≈ 1.08 µM)
[O-][n+]1nc(NC2CCC2)[n+]([O-])c2ccc(F)cc21 | 10 | 0.31 mg/L (≈ 1.24 µM) | 1.6 mg/L (≈ 6.39 µM) | 0.88 mg/L (≈ 3.52 µM) | 0.4 mg/L (≈ 1.6 µM)
[O-][n+]1nc(N[C@@H]2C[C@H]3CC[C@@H]2C3)[n+]([O-])c2ccc(F)cc21 | <4 | 0.31 mg/L (≈ 1.07 µM) | < 2.5 mg/L | 0.21 mg/L (≈ 0.723 µM) | < 0.12 mg/L
CO[C@H]1/C=C/O[C@@]2(C)Oc3c(C)c(O)c4c(O)c(c(/C=N/N5CCN(C)CC5)c(O)c4c3C2=O)NC(=O)/C(C)=C\C=C\[C@H](C)[C@H](O)[C@@H](C)[C@@H](O)[C@@H](C)[C@H](OC(C)=O)[C@@H]1C [RIFAMPIN] | >15000 | 0.003 mg/L (≈ 0.00365 µM) | > 50 mg/L | 2 mg/L (≈ 2.43 µM) | 0.041 mg/L (≈ 0.0498 µM)
COCCNC(=O)c1ccc2c(c1)[n+]([O-])c(C(C)=O)c(C)[n+]2[O-] | >1.6 | 10 mg/L (≈ 31.3 µM) | > 16 mg/L | > 32 mg/L | 27 mg/L (≈ 84.6 µM)
Nc1n[n+]([O-])c2ccccc2[n+]1[O-] [TIRAPAZAMINE] | 1.6 | 5 mg/L (≈ 28.1 µM) | 8 mg/L (≈ 44.9 µM) | 7.3 mg/L (≈ 41 µM) | 3.7 mg/L (≈ 20.8 µM)
CCN(CC)c1n[n+]([O-])c2ccccc2[n+]1[O-] | 40 | 0.31 mg/L (≈ 1.32 µM) | 12 mg/L (≈ 51.2 µM) | 1.3 mg/L (≈ 5.55 µM) | 0.46 mg/L (≈ 1.96 µM)
[O-][n+]1nc(N[C@@H]2C[C@H]3CC[C@@H]2C3)[n+]([O-])c2ccc(Br)cc21 | 2.6 | 0.31 mg/L (≈ 0.883 µM) | 0.8 mg/L (≈ 2.28 µM) | 0.41 mg/L (≈ 1.17 µM) | 0.36 mg/L (≈ 1.03 µM)
[O-][n+]1nc(NC2CCCCC2)[n+]([O-])c2ccc(F)cc21 | <4 | 0.62 mg/L (≈ 2.23 µM) | < 2.5 mg/L | 0.47 mg/L (≈ 1.69 µM) | 0.68 mg/L (≈ 2.44 µM)
[O-][n+]1nc(N2CCOCC2)[n+]([O-])c2ccccc21 | 2.2 | 2.5 mg/L (≈ 10.1 µM) | 5.4 mg/L (≈ 21.8 µM) | 19 mg/L (≈ 76.5 µM) | 3.7 mg/L (≈ 14.9 µM)
CC(C)CCC(C)Nc1n[n+]([O-])c2ccccc2[n+]1[O-] (stereo unspecified) | 3.3 | 1.2 mg/L (≈ 4.34 µM) | 4.1 mg/L (≈ 14.8 µM) | 0.38 mg/L (≈ 1.38 µM) | 0.52 mg/L (≈ 1.88 µM)
[O-][n+]1nc(NC2CCCC2)[n+]([O-])c2ccccc21 | 4.2 | 2.5 mg/L (≈ 10.2 µM) | 10 mg/L (≈ 40.6 µM) | 0.68 mg/L (≈ 2.76 µM) | 3.6 mg/L (≈ 14.6 µM)
Cc1cccc2c1[n+]([O-])c(NC1CCC1)n[n+]2[O-] | 70 | 0.31 mg/L (≈ 1.26 µM) | 22 mg/L (≈ 89.3 µM) | 0.43 mg/L (≈ 1.75 µM) | 0.47 mg/L (≈ 1.91 µM)
[O-][n+]1nc(NC2CC2)[n+]([O-])c2ccc(Cl)cc21 | 2.2 | 0.62 mg/L (≈ 2.45 µM) | 1.3 mg/L (≈ 5.15 µM) | 0.22 mg/L (≈ 0.871 µM) | 0.21 mg/L (≈ 0.831 µM)
COC(=O)/C=C/n1ccnc1[N+](=O)[O-] | 1.6 | 10 mg/L (≈ 50.7 µM) | 16 mg/L (≈ 81.2 µM) | 3.3 mg/L (≈ 16.7 µM) | 29 mg/L (≈ 147 µM)

SMILES | Selectivity Index [1] | MIC90 [2] | CC50 (Vero) | MIC90 [3] | MIC90 [4]
O=C1CN(/N=C/c2ccc([N+](=O)[O-])o2)C(=O)N1 [NITROFURANTOIN] | 1.1 | 16 mg/L (≈ 67.2 µM) | 23 mg/L (≈ 96.6 µM) | 32 mg/L (≈ 134 µM) | 28 mg/L (≈ 118 µM)
O=C(Cn1ccnc1[N+](=O)[O-])NCCO [ETANIDAZOLE] |  | > 10 mg/L | > 16 mg/L | 26 mg/L (≈ 121 µM) | > 32 mg/L
CCNc1n[n+]([O-])c2cc(Br)ccc2[n+]1[O-] | 6.7 | 0.62 mg/L (≈ 2.17 µM) | 4.2 mg/L (≈ 14.7 µM) | 0.46 mg/L (≈ 1.61 µM) | 0.49 mg/L (≈ 1.72 µM)
[O-][n+]1nc(NC2CC2)[n+]([O-])c2ccccc21 | 8.3 | 2.5 mg/L (≈ 11.5 µM) | 21 mg/L (≈ 96.2 µM) | 1.8 mg/L (≈ 8.25 µM) | 
[O-][n+]1nc(N[C@@H]2C[C@H]3CC[C@@H]2C3)[n+]([O-])c2ccc(Cl)cc21 | 7.3 | 0.15 mg/L (≈ 0.489 µM) | 1.1 mg/L (≈ 3.59 µM) | 0.23 mg/L (≈ 0.75 µM) | 0.22 mg/L (≈ 0.717 µM)
Cc1cccc2c1[n+]([O-])c(NC1CCCC1)n[n+]2[O-] | 12 | 0.31 mg/L (≈ 1.19 µM) | 3.7 mg/L (≈ 14.2 µM) | 0.27 mg/L (≈ 1.04 µM) | 0.43 mg/L (≈ 1.65 µM)
[O-][n+]1nc(N[C@@H]2C[C@H]3CC[C@@H]2C3)[n+]([O-])c2cc3c(cc21)CCC3 | >41 | 1.2 mg/L (≈ 3.84 µM) | > 50 mg/L | 0.36 mg/L (≈ 1.15 µM) | 0.93 mg/L (≈ 2.98 µM)
Cc1ncc([N+](=O)[O-])n1CCO [METRONIDAZOLE] |  | > 10 mg/L | > 16 mg/L | 11 mg/L (≈ 64.3 µM) | > 32 mg/L
[O-][n+]1nc(NC2CCCCC2)[n+]([O-])c2ccccc21 | 3.6 | 2.5 mg/L (≈ 9.6 µM) | 8.9 mg/L (≈ 34.2 µM) | 0.75 mg/L (≈ 2.88 µM) | 3.8 mg/L (≈ 14.6 µM)
COc1cc2c(cc1C)[n+]([O-])nc(NC1CCC1)[n+]2[O-] | >20 | 2.5 mg/L (≈ 9.05 µM) | > 50 mg/L | 2.9 mg/L (≈ 10.5 µM) | 5.1 mg/L (≈ 18.5 µM)
[O-][n+]1nc(NC2CCC2)[n+]([O-])c2ccc(Br)cc21 | 24 | 0.15 mg/L (≈ 0.482 µM) | 3.8 mg/L (≈ 12.2 µM) | 0.41 mg/L (≈ 1.32 µM) | 0.46 mg/L (≈ 1.48 µM)
CCc1n[n+]([O-])c2ccccc2[n+]1[O-] | 7.6 | 5 mg/L (≈ 26.2 µM) | 38 mg/L (≈ 199 µM) | 0.97 mg/L (≈ 5.07 µM) | 3.7 mg/L (≈ 19.4 µM)
CC(=O)Nc1cc(/C=C\c2ccc([N+](=O)[O-])o2)ns1 | >50 | 0.98 mg/L (≈ 3.51 µM) | > 50 mg/L | 3.7 mg/L (≈ 13.2 µM) | 3.8 mg/L (≈ 13.6 µM)
[O-][n+]1nc(N[C@@H]2C[C@H]3CC[C@@H]2C3)[n+]([O-])c2ccccc21 | 5.5 | 0.62 mg/L (≈ 2.28 µM) | 3.4 mg/L (≈ 12.5 µM) | 0.42 mg/L (≈ 1.54 µM) | 0.6 mg/L (≈ 2.2 µM)
[O-][n+]1nc(NC2CC2)[n+]([O-])c2ccc(F)cc21 | 2.2 | 0.31 mg/L (≈ 1.31 µM) | 1.3 mg/L (≈ 5.5 µM) | 3.5 mg/L (≈ 14.8 µM) | 0.93 mg/L (≈ 3.94 µM)
CC(C)(C)C1CCC(Nc2n[n+]([O-])c3ccccc3[n+]2[O-])CC1 (stereo unspecified) | 3.7 | 0.62 mg/L (≈ 1.96 µM) | 2.3 mg/L (≈ 7.27 µM) | < 0.12 mg/L | 0.22 mg/L (≈ 0.695 µM)
C[C@@H](Nc1n[n+]([O-])c2ccccc2[n+]1[O-])C1CCCCC1 | 7.1 | 1.2 mg/L (≈ 4.16 µM) | 8.9 mg/L (≈ 30.9 µM) | 0.36 mg/L (≈ 1.25 µM) | 0.92 mg/L (≈ 3.19 µM)
CCNc1n[n+]([O-])c2cc(F)ccc2[n+]1[O-] | 7.3 | 0.62 mg/L (≈ 2.77 µM) | 4.6 mg/L (≈ 20.5 µM) | 0.75 mg/L (≈ 3.35 µM) | 0.35 mg/L (≈ 1.56 µM)
CS(=O)(=O)N1CCN(c2n[n+]([O-])c3cc4c(cc3[n+]2[O-])CCC4)CC1 | >10 | 5 mg/L (≈ 13.7 µM) | > 50 mg/L | 15 mg/L (≈ 41 µM) | 13 mg/L (≈ 35.6 µM)
[O-][n+]1nc(NC2CCCCCC2)[n+]([O-])c2ccccc21 | 3.2 | 2.5 mg/L (≈ 9.11 µM) | 7.9 mg/L (≈ 28.8 µM) | 0.5 mg/L (≈ 1.82 µM) | 1.6 mg/L (≈ 5.83 µM)
COCCNC(=O)c1ccc2c(c1)[n+]([O-])c(O)c(C#N)[n+]2[O-] |  | > 20 mg/L | > 16 mg/L | > 32 mg/L | 
CCNc1n[n+]([O-])c2cc(OC)ccc2[n+]1[O-] | 6.3 | 2.5 mg/L (≈ 10.6 µM) |  | 16 mg/L (≈ 67.7 µM) | 15 mg/L (≈ 63.5 µM)
Cc1c(N2CCCC2)[n+]([O-])c2ccccc2[n+]1[O-] |  | > 10 mg/L | > 16 mg/L | > 32 mg/L | 
